Consider 1 compound from ChEMBL document CHEMBL5506038, “Discovery of LC-MI-3: A Potent and Orally Bioavailable Degrader of Interleukin-1 Receptor-Associated Kinase 4 for the Treatment of Inflammatory Diseases” (J Med Chem, 2024).

As a reminder, the IC50 is the concentration that inhibits the measured activity by half. One may read the half-life as how long it takes for the measured level to halve. Lower therefore signals rapid decline. A word on the Tmax: it is the time at which the peak concentration occurs. As usually defined, the Cmax is the maximum level reached in the sampled fluid or tissue. Broadly, the bioavailability is the share of a dose that reaches the circulation, judged against a reference dose that is usually intravenous. A higher bioavailability goes with much systemic uptake.

SMILES strings stand for the structures. The source made the active and inactive calls. The rule behind the calls is not given here.

The target in series [1] is T1, Interleukin-1 receptor-associated kinase 4 (Homo sapiens, UniProt Q9NWZ3).
T1 sequence (Q9NWZ3 whole entry): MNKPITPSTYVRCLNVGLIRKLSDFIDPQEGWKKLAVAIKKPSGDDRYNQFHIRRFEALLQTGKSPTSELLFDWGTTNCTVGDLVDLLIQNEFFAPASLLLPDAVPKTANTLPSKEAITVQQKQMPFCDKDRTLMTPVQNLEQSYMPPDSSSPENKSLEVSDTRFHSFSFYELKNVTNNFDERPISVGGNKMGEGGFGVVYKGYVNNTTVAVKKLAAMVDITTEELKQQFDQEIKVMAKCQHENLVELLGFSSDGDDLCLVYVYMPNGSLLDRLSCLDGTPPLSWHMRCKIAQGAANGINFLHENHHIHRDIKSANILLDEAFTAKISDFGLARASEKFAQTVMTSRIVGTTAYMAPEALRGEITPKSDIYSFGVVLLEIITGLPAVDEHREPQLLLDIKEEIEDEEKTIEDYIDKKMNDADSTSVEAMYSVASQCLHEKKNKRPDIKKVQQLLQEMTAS
Put plainly: Inhibition of IRAK4 (unknown origin).

Series [2] addresses Protein cereblon/Interleukin-1 receptor-associated kinase 4 (Mus musculus, UniProt Q8C7D2+Q8R4K2). Put plainly: PROTAC activity at IRAK4/CRBN in mouse RAW264.7 cells assessed as reduction in IRAK4 level incubated for 12 hrs by Western blot analysis. It is filed as cell-based. For orientation: Immunoblotting shows a protein as a band on a membrane.
The target in series [3] is Protein cereblon/Interleukin-1 receptor-associated kinase 4 (Homo sapiens, UniProt Q9NWZ3+Q96SW2). Description: PROTAC activity at IRAK4/CRBN in human PBMC cells assessed as reduction in IRAK4 level at 100 nM incubated for 12 hrs by Western blot analysis. It is filed as cell-based.
Series [4] has as its target Protein cereblon/Interleukin-1 receptor-associated kinase 4 (Mus musculus) (UniProt Q8C7D2+Q8R4K2). Description: PROTAC activity at IRAK4/CRBN in mouse RAW264.7 cells assessed as induction of IRAK4 degradation at 100 nM incubated for 12 hrs in presence of MG132 by Western blot analysis. It is filed as cell-based.
Series [5] addresses DNA-binding protein Ikaros (Homo sapiens) (UniProt Q13422). Put plainly: Induction of IKZF1 degradation in human THP-1 cells upto 10000 nM incubated for 12 hrs by Western blotting analysis. Format: cell-based.
Series [6] deals with Zinc finger protein Aiolos (Homo sapiens) (UniProt Q9UKT9). Put plainly: Induction of IKZF3 degradation in human THP-1 cells upto 10000 nM incubated for 12 hrs by Western blotting analysis. It is filed as cell-based.
Series [7] deals with Sal-like protein 4 (Homo sapiens) (UniProt Q9UJQ4). Put plainly: Induction of SALL4 degradation in human THP-1 cells upto 10000 nM incubated for 12 hrs by Western blotting analysis. Format: cell-based.
For series [8], the system named is RAW264.7. Description: Activation of NF-kappaB pathway in LPS-induced mouse RAW264.7 cells expressing EGFP at 5 uM pretreated with compound for 1 hr followed by LPS-induction and measured at 15 min by flow cytometry analysis. Format: cell-based. Conditions: filed as activator, time 75.0 min. (In general: A flow cytometer gives signals particle by particle.)
The nature of series [9]: Half life in Sprague-Dawley rat at 20 mg/kg, po by LC-MS/MS analysis. Format: ADME, organism-based. Particulars: in vivo.
Series [10] is described as follows: Tmax in Sprague-Dawley rat at 20 mg/kg, po by LC-MS/MS analysis. Format: ADME, organism-based. Conditions: in vivo.
Series [11] is described as follows: Cmax in Sprague-Dawley rat at 20 mg/kg, po by LC-MS/MS analysis. Format: ADME, organism-based. Particulars: in vivo.
Series [12] is described as follows: Volume of distribution at steady state in Sprague-Dawley rat at 2 mg/kg, iv by LC-MS/MS analysis. It is filed as ADME, organism-based. Particulars: in vivo, read-out: Vdss.
Series [13] in a line: Oral bioavailability in Sprague-Dawley rat at 20 mg/kg by LC-MS/MS analysis. Format: ADME, organism-based. Particulars: in vivo.
Series [14] concerns Mus musculus. Put plainly: Anti-inflammatory activity against LPS-induced acute […] injury C57BL/6 mouse model assessed as reduction in IL-6 level in lung at 20 mg/kg, IG pretreated with compound for 12 hrs followed by LPS-induction and measured after 6 hrs by RT-PCR analysis. Format: functional, organism-based. Particulars: time 18.0 hrs.
Series [15] in a line: Toxicity in C57BL/6 mouse assessed as lung damage at 20 mg/kg, IG by H and E staining based analysis. Format: organism-based. Particulars: in vivo, po.
Series [16] has as its system RAW264.7. Put plainly: Protection against Escherichia coli-induced sepsis in mouse RAW264.7 cells assessed as reduction in IL-6 production at 1 uM pretreated with compound for 6 hrs followed by Escherichia coli-induction and measured after 6 hrs by ELISA analysis. Conditions: time 12.0 hrs. Format: functional, cell-based. On the technique in general: An ELISA detects its analyte on a solid surface through an enzyme-linked reagent.

Series [17] has as its system RAW264.7. Put plainly: Protection against Escherichia coli-induced sepsis in mouse RAW264.7 cells assessed as reduction in TNF-alpha production at 1 uM pretreated with compound for 6 hrs followed by Escherichia coli-induction and measured after 6 hrs by ELISA analysis. It is filed as functional, cell-based. Particulars: time 12.0 hrs.
Series [18] has as its system Mus musculus. Description: Anti-inflammatory activity in imiquimod-induced C57BL/6 mouse psoriasis model assessed as improvement in swelling at 20 mg/kg, po administered twice daily measured for 6 days. Conditions: time 6.0 day. Format: functional, organism-based.
Series [19] deals with Mus musculus. Put plainly: Anti-inflammatory activity in imiquimod-induced C57BL/6 mouse psoriasis model assessed as improvement in scaling at 20 mg/kg, po administered twice daily measured for 6 days. Conditions: time 6.0 day. Format: functional, organism-based.
In series [20] the test system is Mus musculus. Put plainly: Anti-inflammatory activity in imiquimod-induced C57BL/6 mouse psoriasis model assessed as reduction in keratinocyte proliferation at 20 mg/kg, po administered twice daily measured for 6 days by H and E staining based analysis. Conditions: time 6.0 day. Format: functional, organism-based.
Series [21] is described as follows: Toxicity in C57BL/6 mouse assessed as effect on body weight at 20 mg/kg, po measured for 6 days. Format: organism-based. Conditions: in vivo, 144 h, time 6 day.
Series [22] can be described thus: Drug metabolism in rat hepatocyte assessed as mono-hydroxylation mediated metabolite formation by LC-MS/MS analysis. Conditions: hepatocytes. It is filed as ADME, cell-based.

Chain of Protein cereblon/Interleukin-1 receptor-associated kinase 4 (Mus musculus, UniProt Q8C7D2+Q8R4K2) (Q8C7D2 whole entry): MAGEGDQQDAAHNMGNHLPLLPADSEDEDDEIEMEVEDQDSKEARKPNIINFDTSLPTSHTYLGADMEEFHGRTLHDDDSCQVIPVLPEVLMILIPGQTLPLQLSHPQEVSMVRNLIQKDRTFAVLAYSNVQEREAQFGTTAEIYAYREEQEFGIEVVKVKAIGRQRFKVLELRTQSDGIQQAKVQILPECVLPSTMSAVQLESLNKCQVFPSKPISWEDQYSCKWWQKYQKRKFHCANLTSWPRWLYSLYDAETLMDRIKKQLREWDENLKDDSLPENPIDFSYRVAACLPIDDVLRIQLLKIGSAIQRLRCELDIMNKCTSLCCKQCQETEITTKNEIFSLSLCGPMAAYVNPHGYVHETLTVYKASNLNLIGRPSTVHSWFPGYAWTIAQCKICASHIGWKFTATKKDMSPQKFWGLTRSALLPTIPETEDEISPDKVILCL
Chain of Protein cereblon/Interleukin-1 receptor-associated kinase 4 (Mus musculus, UniProt Q8C7D2+Q8R4K2) (Q8R4K2 whole entry): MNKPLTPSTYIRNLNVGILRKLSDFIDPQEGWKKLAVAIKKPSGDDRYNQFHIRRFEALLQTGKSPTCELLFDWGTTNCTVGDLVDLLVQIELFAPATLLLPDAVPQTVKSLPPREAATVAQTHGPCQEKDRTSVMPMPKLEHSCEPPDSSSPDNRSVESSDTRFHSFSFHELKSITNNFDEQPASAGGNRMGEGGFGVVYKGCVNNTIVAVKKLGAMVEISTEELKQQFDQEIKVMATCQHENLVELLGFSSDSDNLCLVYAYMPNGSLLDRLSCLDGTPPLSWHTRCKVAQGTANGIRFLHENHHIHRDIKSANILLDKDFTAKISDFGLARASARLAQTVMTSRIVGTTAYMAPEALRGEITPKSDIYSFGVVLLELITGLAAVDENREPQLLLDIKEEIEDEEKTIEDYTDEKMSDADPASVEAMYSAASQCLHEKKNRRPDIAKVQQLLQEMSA
Chain of Protein cereblon/Interleukin-1 receptor-associated kinase 4 (Mus musculus) (Q8C7D2 whole entry, looked up): as the sequence (Q8C7D2 whole entry) above
Chain of Protein cereblon/Interleukin-1 receptor-associated kinase 4 (Mus musculus) (Q8R4K2 whole entry, looked up): as the sequence (Q8R4K2 whole entry) above
Chain of Protein cereblon/Interleukin-1 receptor-associated kinase 4 (Homo sapiens, UniProt Q9NWZ3+Q96SW2) (Q96SW2 whole entry, looked up, one chain of several): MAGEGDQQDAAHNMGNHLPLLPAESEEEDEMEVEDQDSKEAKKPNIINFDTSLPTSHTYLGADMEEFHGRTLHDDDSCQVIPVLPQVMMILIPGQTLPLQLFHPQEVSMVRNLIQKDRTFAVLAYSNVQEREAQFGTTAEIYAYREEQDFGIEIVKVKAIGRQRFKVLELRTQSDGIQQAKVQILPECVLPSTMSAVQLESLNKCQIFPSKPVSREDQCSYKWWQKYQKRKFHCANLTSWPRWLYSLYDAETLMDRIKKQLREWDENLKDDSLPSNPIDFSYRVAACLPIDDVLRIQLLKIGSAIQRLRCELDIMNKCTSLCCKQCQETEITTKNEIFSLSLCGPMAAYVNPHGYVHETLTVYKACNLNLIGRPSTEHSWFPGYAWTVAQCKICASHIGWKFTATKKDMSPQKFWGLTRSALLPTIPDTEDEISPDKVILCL
Chain of Zinc finger protein Aiolos (Homo sapiens) (Q9UKT9 whole entry): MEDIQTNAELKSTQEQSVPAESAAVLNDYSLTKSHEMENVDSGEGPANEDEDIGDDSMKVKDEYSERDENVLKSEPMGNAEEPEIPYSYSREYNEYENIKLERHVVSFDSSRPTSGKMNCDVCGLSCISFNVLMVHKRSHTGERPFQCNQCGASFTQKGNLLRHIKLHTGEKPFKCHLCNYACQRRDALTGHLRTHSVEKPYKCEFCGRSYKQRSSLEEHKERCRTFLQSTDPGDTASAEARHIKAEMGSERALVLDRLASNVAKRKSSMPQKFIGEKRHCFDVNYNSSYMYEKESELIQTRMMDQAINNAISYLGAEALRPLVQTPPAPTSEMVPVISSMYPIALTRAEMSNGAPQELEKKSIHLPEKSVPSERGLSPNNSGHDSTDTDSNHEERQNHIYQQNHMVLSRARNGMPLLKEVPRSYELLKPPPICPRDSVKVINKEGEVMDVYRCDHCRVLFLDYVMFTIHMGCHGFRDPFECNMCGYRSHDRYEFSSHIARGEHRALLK
Chain of DNA-binding protein Ikaros (Homo sapiens) (Q13422 whole entry): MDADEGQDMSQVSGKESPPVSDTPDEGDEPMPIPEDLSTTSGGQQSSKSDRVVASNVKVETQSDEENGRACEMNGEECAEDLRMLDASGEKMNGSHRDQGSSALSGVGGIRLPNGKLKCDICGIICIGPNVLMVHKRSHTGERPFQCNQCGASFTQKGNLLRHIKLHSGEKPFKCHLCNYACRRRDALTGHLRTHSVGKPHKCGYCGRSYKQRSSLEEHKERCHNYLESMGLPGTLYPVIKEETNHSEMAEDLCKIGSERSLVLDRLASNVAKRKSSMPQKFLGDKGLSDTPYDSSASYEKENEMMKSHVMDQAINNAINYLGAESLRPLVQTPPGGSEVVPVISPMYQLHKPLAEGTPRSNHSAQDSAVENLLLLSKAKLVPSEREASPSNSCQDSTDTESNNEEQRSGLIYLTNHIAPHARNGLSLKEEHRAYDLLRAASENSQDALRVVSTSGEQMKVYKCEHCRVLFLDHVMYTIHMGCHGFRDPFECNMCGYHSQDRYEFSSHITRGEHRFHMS
Chain of Sal-like protein 4 (Homo sapiens) (Q9UJQ4 whole entry): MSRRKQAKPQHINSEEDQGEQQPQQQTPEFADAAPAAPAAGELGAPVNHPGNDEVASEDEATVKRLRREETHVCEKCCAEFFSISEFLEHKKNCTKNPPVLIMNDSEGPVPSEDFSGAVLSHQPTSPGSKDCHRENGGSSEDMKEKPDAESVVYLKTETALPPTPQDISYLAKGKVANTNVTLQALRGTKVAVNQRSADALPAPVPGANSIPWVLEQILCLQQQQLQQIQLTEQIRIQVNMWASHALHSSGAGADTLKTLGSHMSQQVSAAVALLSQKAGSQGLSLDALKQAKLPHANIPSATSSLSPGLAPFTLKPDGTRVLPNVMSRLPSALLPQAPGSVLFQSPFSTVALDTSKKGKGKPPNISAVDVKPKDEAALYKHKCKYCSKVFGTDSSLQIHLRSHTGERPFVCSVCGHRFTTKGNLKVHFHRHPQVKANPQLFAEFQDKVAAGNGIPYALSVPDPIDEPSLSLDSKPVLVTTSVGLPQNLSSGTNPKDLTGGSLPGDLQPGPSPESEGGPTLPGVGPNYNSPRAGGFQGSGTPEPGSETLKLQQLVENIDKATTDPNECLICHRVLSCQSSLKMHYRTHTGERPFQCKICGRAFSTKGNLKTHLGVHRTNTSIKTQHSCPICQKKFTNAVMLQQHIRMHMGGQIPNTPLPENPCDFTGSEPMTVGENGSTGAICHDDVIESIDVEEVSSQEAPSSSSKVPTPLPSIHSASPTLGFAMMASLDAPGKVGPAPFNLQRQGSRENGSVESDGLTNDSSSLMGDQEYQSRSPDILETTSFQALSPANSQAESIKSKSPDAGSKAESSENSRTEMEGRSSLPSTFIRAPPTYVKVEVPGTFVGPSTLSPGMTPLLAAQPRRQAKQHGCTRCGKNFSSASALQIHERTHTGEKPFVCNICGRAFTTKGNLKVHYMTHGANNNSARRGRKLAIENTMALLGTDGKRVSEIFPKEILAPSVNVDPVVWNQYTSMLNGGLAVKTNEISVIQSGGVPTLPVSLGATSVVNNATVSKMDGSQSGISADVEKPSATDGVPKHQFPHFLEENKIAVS

In the case of `COc1cc(N2CCN(C(=O)CCOCC#Cc3ccc4c(c3)C(=O)N(C3CCC(=O)NC3=O)C4=O)CC2)ccc1NC(=O)c1cccc(-c2ccn[nH]2)n1` (configuration not stated), the IC50 in series [1] was below 100 nM. For the same compound, in [2], the DC50 stood at 47.4 nM. The outcome in series [3], in series [4], in [8], in [14], in series [16] and in series [17] was Active. In addition, the outcome in series [18], in series [19] and in series [20] was Active. For the same compound, the outcome in [5], in series [6] and in series [7] was inactive. In series [9], the half-life was 87.2 min. For the same compound, in [10], the Tmax came to 30 min. The compound also had a peak concentration (Cmax) in series [11] of 440 ng/mL. Moreover, the Vd in series [12] is 0.584 L/kg. For the same compound, in series [13], the bioavailability was 8.15%. The Activity result in series [15] and in [21] was “Non-Toxic” each time. In addition, the Drug metabolism result in series [22] is “Metabolite_Detected”.
